In article PMC9945734 (BMC Medicine, 2023):
Several values for one entry are separate records, joined by “and”; a condition that tells them apart may be missing. Equal values may be shown once.

Test system: PC-3-KQ and PC-3-KR cells
Assay: RNA-sequencing and differential gene expression
Assay type: cell-based, human
Parameters: CEP19 tpm_KQ_NTZ / CCNA1 tpm_KQ_NTZ / BTN3A3 tpm_KQ_NTZ / CAPSL tpm_KQ_NTZ / CELF3 tpm_KQ_NTZ / C5orf63 tpm_KQ_NTZ / tpm MSMP / tpm MYH7B / tpm CACNG8 / CNTNAP3B tpm_KQ_NTZ / IL21R tpm_KQ_NTZ / CYP8B1 tpm_KQ_NTZ / C2orf78 tpm_KQ_NTZ / CALB1 tpm_KQ_NTZ / COL4A3 tpm_KQ_NTZ / CFB tpm_KQ_NTZ / PFKFB1 tpm_KQ_NTZ / BTBD11 tpm_KQ_NTZ: scale not given here
[1] = PC-3-KQ cells with NTZ, RNA-Seq, replicates 1-3, listed as NTZ

## CC(=O)Oc1ccccc1C(=O)Nc1ncc([N+](=O)[O-])s1 [Nitazoxanide]
5 μM, 48 h
  reversed genes that were downregulated by KLF5^K369Q: 114 genes
  reversed genes that were upregulated by KLF5^K369Q: 127 genes
5 μM, 48 h, of 2836 differentially expressed genes
  differentially expressed genes whose KLF5^K369Q-modulated expression patterns were reversed: 241 genes
[1]
  BTBD11 tpm_KQ_NTZ: 0.02343 (2×) and -0.3135
  BTN3A3 tpm_KQ_NTZ: 0.1048 and 0.06849 and 0.4183
  C2orf78 tpm_KQ_NTZ: -0.1653 (2×) and -0.2557
  C5orf63 tpm_KQ_NTZ: -1.246 and -0.6828 (2×)
  CALB1 tpm_KQ_NTZ: -0.5505 and -0.5318 and -0.6014
  CAPSL tpm_KQ_NTZ: 0.1399 and 0.07957 and 0.02817
  CCNA1 tpm_KQ_NTZ: 0.2896 and 0.0474 and -0.0329
  CELF3 tpm_KQ_NTZ: -0.6626 and -0.09641 and -1.398
  CEP19 tpm_KQ_NTZ: -0.2178 and -0.1674 and -0.2603
  CFB tpm_KQ_NTZ: 1.072 and 0.8732 and 1.006
  CNTNAP3B tpm_KQ_NTZ: -1.003 and -0.7486 and -1.333
  COL4A3 tpm_KQ_NTZ: 0.8606 and -0.008515 and 0.09381
  CSF1R tpm_KQ_NTZ: -0.4278 and 0.5782 and -0.287
  CSF3 tpm_KQ_NTZ: -0.1666 and -0.05545 and -0.03443
  CYP8B1 tpm_KQ_NTZ: 0.5351 and -0.06455 and 0.239
  CYSTM1 tpm_KQ_NTZ: 0.5286 and 0.6762 and 0.7083
  DEPTOR tpm_KQ_NTZ: -0.1625 and 0.109 and -0.5598
  DISP1 tpm_KQ_NTZ: 0.9822 and -0.1345 and 0.01324
  DMC1 tpm_KQ_NTZ: 0.2859 and -0.2731 and -0.5992
  EFCAB6 tpm_KQ_NTZ: -0.1794 and -0.1071 (2×)
  ESPN tpm_KQ_NTZ: 0.1813 and 0.02389 and 0.09131
  FA2H tpm_KQ_NTZ: 0.4488 and 0.5616 and 0.5267
  FAM43A tpm_KQ_NTZ: 0.03072 and -0.121 and -0.09259
  FAM83D tpm_KQ_NTZ: -0.5519 and -0.6015 and -0.7989
  FAM178B tpm_KQ_NTZ: 0.08123 and 0.3901 and 0.3146
  FANCI tpm_KQ_NTZ: -0.4967 and -0.5797 and -1.118
  FANCL tpm_KQ_NTZ: -0.04507 and -0.1672 and -0.6878
  FIBCD1 tpm_KQ_NTZ: 0.8945 (2×) and 0.4936
  FLI1 tpm_KQ_NTZ: 0.163 and 0.09153 and 0.3476
  FLRT1 tpm_KQ_NTZ: 0.02501 and 0.1658 and 0.1094
  FOXI1 tpm_KQ_NTZ: -0.2315 and -0.3686 and -0.4151
  FOXP3 tpm_KQ_NTZ: -0.3022 and -0.9252 and -0.8607
  FRY tpm_KQ_NTZ: 0.3424 and 1.196 and 0.3898
  FUT3 tpm_KQ_NTZ: 0.2065 and 0.1078 and 0.1213
  FZD4 tpm_KQ_NTZ: -0.8248 and -0.9863 and -1.191
  GBX2 tpm_KQ_NTZ: 0.2922 and 0.1832 and -0.01058
  GCNT3 tpm_KQ_NTZ: 0.5624 and 1.46 and 1.425
  GDPD3 tpm_KQ_NTZ: 0.1549 and 0.8212 and 1.086
  GPR19 tpm_KQ_NTZ: -0.4052 and -1.088 and -0.1444
  H3C1 tpm_KQ_NTZ: -0.4909 and -0.7381 and -0.1713
  HAS3 tpm_KQ_NTZ: -0.7244 and -1.045 and -1.209
  HSD3B1 tpm_KQ_NTZ: 0.4147 and -0.0829 and 0.06266
  HSPB8 tpm_KQ_NTZ: 1.202 and 1.163 and 1.373
  IFITM10 tpm_KQ_NTZ: 0.594 and 0.6249 and 1.26
  IGF2BP1 tpm_KQ_NTZ: -0.6156 and 0.2139 and -0.1353
  IGFBP4 tpm_KQ_NTZ: -0.9714 and -1.052 and -1.107
  IGSF23 tpm_KQ_NTZ: 0.2138 and -0.14 and 0.153
  IL1RN tpm_KQ_NTZ: 0.4172 and 0.5103 and 0.3837
  IL21R tpm_KQ_NTZ: 0.1341 and 0.3531 and -0.6262
  IL32 tpm_KQ_NTZ: 0.1915 and 0.128 and 0.2784
  IL36RN tpm_KQ_NTZ: 0.2015 and -0.02405 and -0.08881
  KDELR2 tpm_KQ_NTZ: 0.386 and 0.3336 and 0.3028
  KIAA0319 tpm_KQ_NTZ: 0.8897 and 0.7646 and 0.5228
  KLK9 tpm_KQ_NTZ: -0.2259 and -0.6416 and -0.6693
  KRT17 tpm_KQ_NTZ: -0.1797 and -0.2377 and -0.2552
  LGALS12 tpm_KQ_NTZ: -0.7737 and -0.7092 and -1.317
  LILRB3 tpm_KQ_NTZ: -0.849 and 0.2071 and -0.3616
  LOC105373989 tpm_KQ_NTZ: 0.1747 and 0.1405 and -0.01628
  LOC107985532 tpm_KQ_NTZ: -0.4716 and -1.399 and -0.5849
  LRRK1 tpm_KQ_NTZ: 0.2201 and 0.2241 and -0.1686
  LTB tpm_KQ_NTZ: 0.298 and 0.1911 and 0.1215
  LY6K tpm_KQ_NTZ: 0.361 and 0.2663 and 0.3215
  MAP2 tpm_KQ_NTZ: 1.038 and 0.7956 and 0.3906
  MCM4 tpm_KQ_NTZ: -0.8715 and -0.9161 and -1.036
  METRNL tpm_KQ_NTZ: -0.141 and -0.421 and -0.3102
  MFSD2A tpm_KQ_NTZ: 0.8546 and 0.3607 and 0.5375
  MMP9 tpm_KQ_NTZ: 0.4129 and 0.2062 and 0.3482
  MNX1 tpm_KQ_NTZ: 0.2275 and -0.9 and 0.1118
  MROH8 tpm_KQ_NTZ: -1.87 and -0.2315 and 0.3664
  MVP tpm_KQ_NTZ: 0.5977 and 0.4827 and 0.3544
  MYBL2 tpm_KQ_NTZ: -0.1727 and -0.165 and -0.155
  NAV1 tpm_KQ_NTZ: 0.9647 (2×) and 0.5494
  NECTIN4 tpm_KQ_NTZ: 1.229 and 1.239 and 1.198
  NKD1 tpm_KQ_NTZ: 0.09084 and 0.3652 and -0.1886
  NLRC5 tpm_KQ_NTZ: 0.9096 and 0.9955 and 0.3927
  NR4A2 tpm_KQ_NTZ: -0.3921 and 0.001744 and -0.3514
  NRK tpm_KQ_NTZ: -0.02829 and -0.09407 and -0.0544
